{"source": "paper PMC5745029", "about": "(Bioconjugate chemistry, 2010)", "origin": "cited, not measured here", "target": "T1, human apical sodium dependent bile acid transporter (ASBT) (Homo sapiens, UniProt Q12908)", "T1 sequence (Q12908 1-348)": "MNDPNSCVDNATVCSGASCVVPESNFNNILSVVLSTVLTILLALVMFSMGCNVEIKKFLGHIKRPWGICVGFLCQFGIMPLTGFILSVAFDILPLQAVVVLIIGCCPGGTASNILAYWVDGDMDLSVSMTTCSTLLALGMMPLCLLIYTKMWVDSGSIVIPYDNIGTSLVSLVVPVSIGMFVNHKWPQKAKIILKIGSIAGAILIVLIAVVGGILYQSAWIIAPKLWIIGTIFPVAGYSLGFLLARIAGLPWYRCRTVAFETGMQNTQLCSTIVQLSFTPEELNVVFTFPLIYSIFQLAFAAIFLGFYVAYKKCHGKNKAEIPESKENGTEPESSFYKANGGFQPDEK", "settings": "ASBT-MDCK monolayer", "data": [{"molecule": "C[C@H](CCC(=O)O)[C@H]1CC[C@H]2[C@@H]3[C@H](O)C[C@@H]4C[C@H](O)CC[C@]4(C)[C@H]3CC[C@]12C", "note": "[CDCA, chenodeoxycholate]", "values": [{"measurement": "ASBT inhibition among native bile acids", "result": "most potent inhibitor among native bile acids"}]}]}
